The source of these data is patent US11834466B2, “Benzoxaborole compounds and formulations thereof” (5Metis, Inc., priority 2017, dated 2023).

Common to all, as to format: in vivo
The test system of assay [1] is soybean/white mold (Sclerotinia sclerotiorum). In words: Greenhouse biological efficacy on soybean/white mold. The conditions noted are these: BAG8 0.25 lb/acre at 20 gal/acre, inoculum 24 hours post spray, Example 29, Table 19, untreated control 7.333. As for the experimental part:
(§1) The BAG8 SC formulations described in Example 10 (BAG8 20% SC) and Example 12 (BAG8 40% SC) and selected BAG8 SC-tank mix formulations described in Example 23 were tested under greenhouse conditions. Data was obtained for soybean/white mold (Sclerotinia sclerotiorum), wheat/SNB (Parastangaspora nodorum), and cucubit/downy mildew. For each experiment, the BAG8 was applied at a rate of 0.25 lb/acre and at a spray rate of 20 gal/acre. Various BAG8 EC formulations, the BAG8 WP formulation described in Example 18, and selected BAG8 SC-tank mix formulations described in Example 23 were tested under greenhouse conditions. Data was obtained for soybean/white mold (Sclerotinia sclerotiorum), wheat/SNB (Parastangaspora nodorum), and cucurbit/downy mildew. For each experiment, the BAG8 was applied at a rate of 0.25 lb/acre at a spray rate of 20 gal/acre (40 mL of spray solution prepared). All inoculum was applied 24 hours post BAG8 spray. Unformulated BAG8 was applied to the plants by dissolving BAG8 in a 30% acetone-70% water solution.

The test system of assay [2] is wheat/SNB (Parastangaspora nodorum). Put plainly: Greenhouse biological efficacy on wheat/SNB. The conditions noted are these: BAG8 0.25 lb/acre at 20 gal/acre, inoculum 24 hours post spray, Example 26, Table 16, untreated control 6.750. As for the experimental part: as §1
Another assay deals with cucurbit/downy mildew. In words: Greenhouse biological efficacy on cucurbit/downy mildew. To be noted: BAG8 0.25 lb/acre at 20 gal/acre, inoculum 24 hours post spray. As for the experimental part:
as §1

Structures are written as SMILES.

For `OB1OCc2cc(Cl)ccc21` [BAG8, 5-chlorobenzo[c][1,2]oxaborol-1(3H)-ol], the “Mean Disease Severity” value in assay [1] is given as 5.333; in assay [2], 5.750; in the assay with cucurbit/downy mildew (Cucumber/Downy Mildew, Example 29, Table 20, untreated control 7.417), 5.833; with cucurbit/downy mildew (Curcurbit/Downy Mildew, Example 27, Table 17, untreated control 8.364), 2.000; in the assay with cucurbit/downy mildew (Curcurbit/Downy Mildew, Example 28, Table 18, untreated control 6.667), 5.833.
